Results published in the NIST ThermoML archive (doi:10.1021/acs.jced.7b00494).

Experiment: mn = molality of the nth substance listed, in mol/kg
Details: 99.6 kPa, Liquid; for kinematic viscosity: Capillary tube (Ostwald / Ubbelohde) method; for mass density: Vibrating tube method

CNC(C)=O [N-methylacetamide] + [Ca+2].[Cl-].[Cl-]
Details | kinematic viscosity, 308.15 K [m2/s] | kinematic viscosity, 313.15 K [m2/s] | kinematic viscosity, 318.15 K [m2/s] | mass density, 308.15 K [kg/m3] | mass density, 313.15 K [kg/m3]
m2 = 0 | 3.79e-06 | 3.35e-06 | 2.99e-06 | 945.85 | 941.63
m2 = 0.00398 | 3.81e-06 | 3.38e-06 | 3.02e-06 | 946.1 | 941.91
m2 = 0.01042 | 3.83e-06 | 3.41e-06 | 3.04e-06 | 946.61 | 942.38
m2 = 0.04232 | 4.04e-06 | 3.59e-06 | 3.19e-06 | 948.77 | 944.56
m2 = 0.05605 | 4.13e-06 | 3.67e-06 | 3.25e-06 | 949.67 | 945.49
m2 = 0.08536 | 4.34e-06 | 3.83e-06 | 3.4e-06 | 951.77 | 947.59
m2 = 0.1022 | 4.47e-06 | 3.95e-06 | 3.49e-06 | 953.01 | 948.87
m2 = 0.1314 | 4.7e-06 | 4.15e-06 | 3.67e-06 | 954.97 | 950.79
m2 = 0.1539 | 4.89e-06 | 4.31e-06 | 3.8e-06 | 956.57 | 952.41
m2 = 0.1613 | 4.95e-06 | 4.35e-06 | 3.85e-06 | 957.09 | 952.96
m2 = 0.1719 | 5.03e-06 | 4.42e-06 | 3.9e-06 | 957.84 | 953.69
m2 = 0.1998 | 5.26e-06 | 4.63e-06 | 4.08e-06 | 959.8 | 955.68
m2 = 0.2219 | 5.46e-06 | 4.8e-06 | 4.24e-06 | 961.27 | 957.26
m2 = 0.2578 | 5.79e-06 | 5.1e-06 | 4.5e-06 | 964 | 959.75
m2 = 0.3546 | 6.92e-06 | 6.01e-06 | 5.32e-06 | 970.82 | 966.61
